We go through ten compounds from patent US20260258047A1, “COMPOSITIONS USEFUL FOR MODULATING SPLICING” (Skyhawk Therapeutics, Inc., priority 2023, published 2026).

pIC50: −log10 of the molar value.

As a reminder, the pIC50 is the negative decadic logarithm of the IC50, by convention in mol/L.

The experiment has as its system ATXN3 transcripts containing exon 4. The experiment can be described thus: ATXN3 quantitative splicing assay (qPCR, E4E5 primers/probe). Type of experiment: cell-based. As to conditions: Human neuroblastoma SK-N-MC cells, 24 h treatment, qPCR of transcripts containing exon 4; read-out: ATXN3 Potency - Splicing E4E5 IC50. Here is the method:
Human neuroblastoma SK-N-MC cells were plated in 384-well plates at 20,000 cells/well. Twenty-four hours after plating, cells were treated with compounds for 24 h at appropriate concentrations ranging from 30 μM to 0.6 nM (0.3% DMSO). Treated cells were lysed in 15 μL of lysis buffer, and cDNA was synthesized using the Fast Advanced Cells-to-Ct kit. Two μL of each cDNA was used in qPCR reactions to confirm the exon 4 skipped transcripts of ATXN3. A second set of primers/probe E4E5 was used to detect the transcripts containing exon 4. The third set of primers/probe E8E9 was used to detect total gene level of ATXN3. The qPCR reactions were prepared in 384-well plates in 10 μL volume, using TaqMan™ Fast Advanced Master Mix with primers and probes shown in the table below. Reactions were run in a Quant Studio 6 qPCR instrument with default settings.
The primers and probes are listed below in Table 3.
Background: In qPCR the cycle at which signal appears reflects the starting amount.
Regarding `Cc1c(C[C@@H](N)[C@H](C)F)cc2c(NCc3ccncc3)nc(Cl)nn12` [Compound 5, 6-((2R,3S)-2-amino-3-fluorobutyl)-2-chloro-7-methyl-N-(pyridin-4-ylmethyl)pyrrolo[2,1-f][1,2,4]triazin-4-amine], the negative-log IC50 (pIC50) was 6.30 to 7.00.
Consider `Cc1c(C[C@@H](N)[C@H](C)F)cc2c(NCc3ccncc3F)nc(Cl)nn12` [Compound 7, 6-((2R,3S)-2-amino-3-fluorobutyl)-2-chloro-N-((3-fluoropyridin-4-yl)methyl)-7-methylpyrrolo[2,1-f][1,2,4]triazin-4-amine], for which the pIC50 was 6.30 to 7.00.
For the compound `Cc1c(C[C@@H](N)CC2CC2)cc2c(NCc3ccncn3)nc(Cl)nn12` [Compound 9, (S)-6-(2-amino-3-cyclopropylpropyl)-2-chloro-7-methyl-N-(pyrimidin-4-ylmethyl)pyrrolo[2,1-f][1,2,4]triazin-4-amine], the pIC50 is 5.30 to 6.30.
Take `Cc1c(C[C@@H](N)CC2CC2)cc2c(NCc3ccncc3)nc(Cl)nn12` [Compound 8, (S)-6-(2-amino-3-cyclopropylpropyl)-2-chloro-7-methyl-N-(pyridin-4-ylmethyl)pyrrolo[2,1-f][1,2,4]triazin-4-amine]: the negative logarithm of the IC50 (pIC50) was 5.30 to 6.30.
Turning to `C[C@H](F)[C@H](N)Cc1cc2c(NCc3ncccc3F)nc(Cl)nn2c1Br` [Compound 3, 6-((2R,3S)-2-amino-3-fluorobutyl)-7-bromo-2-chloro-N-((3-fluoropyridin-2-yl)methyl)pyrrolo[2,1-f][1,2,4]triazin-4-amine], the pIC50 was 5.30 to 6.30.
As to `C[C@H](F)[C@H](N)Cc1cc2c(NCc3c(F)cncc3F)nc(Cl)nn2c1Br` [Compound 4, 6-((2R,3S)-2-amino-3-fluorobutyl)-7-bromo-2-chloro-N-((3,5-difluoropyridin-4-yl)methyl)pyrrolo[2,1-f][1,2,4]triazin-4-amine], the pIC50 was 6.30 to 7.00.
Under `C[C@H](F)[C@H](N)Cc1cc2c(NCc3ccncc3F)nc(Cl)nn2c1Br` [Compound 1, 6-((2R,3S)-2-amino-3-fluorobutyl)-7-bromo-2-chloro-N-((3-fluoropyridin-4-yl)methyl)pyrrolo[2,1-f][1,2,4]triazin-4-amine] stands 7.00 to 11.00.
Turning to `Cc1c(C[C@@H](N)[C@H](C)F)cc2c(NCc3ccncn3)nc(Cl)nn12` [Compound 6, 6-((2R,3S)-2-amino-3-fluorobutyl)-2-chloro-7-methyl-N-(pyrimidin-4-ylmethyl)pyrrolo[2,1-f][1,2,4]triazin-4-amine], the pIC50 is 6.30 to 7.00.
Turning to `Cc1c(C[C@@H](N)CC2CC2)cc2c(NCc3ccncc3F)nc(Cl)nn12` [Compound 10, (S)-6-(2-amino-3-cyclopropylpropyl)-2-chloro-N-((3-fluoropyridin-4-yl)methyl)-7-methylpyrrolo[2,1-f][1,2,4]triazin-4-amine], the pIC50 was 5.30 to 6.30.
For `C[C@H](F)[C@H](N)Cc1cc2c(NCc3ccncn3)nc(Cl)nn2c1Br` [Compound 2, 6-((2R,3S)-2-amino-3-fluorobutyl)-7-bromo-2-chloro-N-(pyrimidin-4-ylmethyl)pyrrolo[2,1-f][1,2,4]triazin-4-amine], the pIC50 is 7.00 to 11.00.
